Data: US9586942B2, “Aminotetraline and aminoindane derivatives, pharmaceutical compositions containing them, and their use in therapy” (AbbVie Deutschland GmbH & Co. KG, priority 2013, dated 2017)

Tests used:
[1] = target: human GlyT1c transporter (Homo sapiens (Human), UniProt P48067); experiment: Radioligand binding assay using recombinant CHO cell membranes expressing human GlyT1; details: examples marked * tested as fumarate salts, read-out: radioligand binding Kiapp
Description: 2. Radioligand binding assays using recombinant CHO cell membranes expressing human GlyT1:
Radioligand binding to human GlyT1c transporter-expressing membranes was determined as described in Mezler et al., Molecular Pharmacology 74:1705-1715, 2008.

[2] = Metabolic stability in human liver microsomes; assay type: in vitro ADME; details: human liver microsomes 0.25 mg protein/ml, 0.5 μM test substance, NADPH, 37° C., pH 7.4; scaled microsomal clearance; examples marked * tested as fumarate salts
Description: Metabolic stability was determined as follows:
0.5 μM test substance was preincubated together with human liver microsomes (0.25 mg of microsomal protein/ml) in 0.05 M potassium phosphate buffer of pH 7.4 in microtiter plates at 37° C. for 5 min. The reaction was started by adding NADPH (1.0 mM). After 0, 5, 10, 15, 20 and 30 min the reaction was stopped and cooled with twice the amount of quench solution consisting of acetonitrile/methanol 1:1, and containing 0.2 μM carbutamide. The samples were frozen until analyzed. The remaining concentration of undegraded test substance was determined by LC MSMS. The half-life (T1/2) was determined from the gradient of the signal of test substance/unit time plot, allowing to calculate the half-life of the test substance, assuming first order kinetics, from the decrease in the concentration of the compound with time. The microsomal clearance (mClint) was calculated as follows: mClint=((ln(2)/t 1/2)/Microsomal Protein Concentration (mg/ml))*1000, leading to the unit of uLmin/mg. The scaled clearance (mClin_scaled) was calculated as mCLint_scaled=m CLint*(Microsomal Yield (mg/kg BW))/1000000*60, leading to the units L/hr/kg. The Microsomal Yield is defined by the specifics of the used microsomes. Calculations were modified from references: Di, The Society for Biomolecular Screening, 2003, 453-462; Obach, DMD, 1999 vol 27. N 11, 1350-1359.

Chain of human GlyT1c transporter (P48067 whole entry): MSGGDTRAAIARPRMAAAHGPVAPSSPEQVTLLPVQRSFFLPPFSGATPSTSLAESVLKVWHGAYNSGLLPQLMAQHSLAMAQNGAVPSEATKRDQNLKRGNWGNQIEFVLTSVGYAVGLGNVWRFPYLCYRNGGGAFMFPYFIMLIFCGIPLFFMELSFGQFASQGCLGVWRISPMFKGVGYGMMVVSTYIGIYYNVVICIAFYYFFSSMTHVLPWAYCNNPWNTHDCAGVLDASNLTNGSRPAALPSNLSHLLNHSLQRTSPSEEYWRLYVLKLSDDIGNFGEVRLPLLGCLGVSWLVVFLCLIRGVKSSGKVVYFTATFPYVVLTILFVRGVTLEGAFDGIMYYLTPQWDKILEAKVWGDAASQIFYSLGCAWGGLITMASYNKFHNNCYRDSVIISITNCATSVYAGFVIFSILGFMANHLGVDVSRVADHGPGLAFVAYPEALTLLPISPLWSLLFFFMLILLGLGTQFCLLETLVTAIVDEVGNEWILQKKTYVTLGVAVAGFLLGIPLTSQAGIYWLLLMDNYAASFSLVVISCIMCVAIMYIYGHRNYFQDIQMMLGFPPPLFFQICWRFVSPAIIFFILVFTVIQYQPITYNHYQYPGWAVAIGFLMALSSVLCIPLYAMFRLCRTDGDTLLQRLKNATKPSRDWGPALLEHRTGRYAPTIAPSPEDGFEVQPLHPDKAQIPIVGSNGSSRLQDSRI

Cn1cnc(S(=O)(=O)NC2CN(c3ccc4c(c3)[C@@H](Cc3ccccc3)[C@@H](N3CCC3)CC4)C2)c1 [Example 1, N-(1-((7S,8R)-7-(azetidin-1-yl)-8-benzyl-5,6,7,8-tetrahydronaphthalen-2-yl)azetidin-3-yl)-1-methyl-1H-imidazole-4-sulfonamide]
Ki [1]: ≤ 10 nM
human mCl [2]: ≦5 L/h/Kg

CCCS(=O)(=O)N[C@H]1CCN(c2ccc3c(c2)[C@@H](Cc2ccccc2)[C@@H](N2CCC2)CC3)C1=O [Example 14, N-((S)-1-((7S,8R)-7-(azetidin-1-yl)-8-benzyl-5,6,7,8-tetrahydronaphthalen-2-yl)-2-oxopyrrolidin-3-yl)propane-1-sulfonamide]
Ki [1]: ≤ 100 nM
human mCl [2]: ≦5 L/h/Kg

CS(=O)(=O)NC1CN(c2ccc3c(c2)[C@@H](Cc2ccccc2)[C@@H](N2CCC2)CC3)C1 [Example 3, N-(1-((7S,8R)-7-(azetidin-1-yl)-8-benzyl-5,6,7,8-tetrahydronaphthalen-2-yl)azetidin-3-yl)methanesulfonamide]
Ki [1]: ≤ 1000 nM
human mCl [2]: ≦5 L/h/Kg

Cn1cc(S(=O)(=O)NC2CN(c3ccc4c(c3)[C@@H](Cc3ccccc3)[C@@H](N3CC5CC5C3)CC4)C2)nn1 (stereo partly drawn) [Example 16, N-(1-((7S,8R)-8-benzyl-7-(3-azabicyclo[3.1.0]hexan-3-yl)-5,6,7,8-tetrahydronaphthalen-2-yl)azetidin-3-yl)-1-methyl-1H-1,2,3-triazole-4-sulfonamide]
Ki [1]: ≤ 10 nM
human mCl [2]: ≦5 L/h/Kg

Cn1cnc(S(=O)(=O)NC2(C)CN(c3ccc4c(c3)[C@@H](Cc3ccccc3)[C@@H](N3CCC3)CC4)C2)c1 [Example 7, N-(1-((7S,8R)-7-(azetidin-1-yl)-8-benzyl-5,6,7,8-tetrahydronaphthalen-2-yl)-3-methylazetidin-3-yl)-1-methyl-1H-imidazole-4-sulfonamide]
Ki [1]: ≤ 100 nM
human mCl [2]: ≦5 L/h/Kg

O=S(=O)(NC1CN(c2ccc3c(c2)[C@@H](Cc2ccccc2)[C@@H](N2CCC2)CC3)C1)c1ccc2c(c1)OC(F)(F)O2 [Example 6, N-(1-((7S,8R)-7-(azetidin-1-yl)-8-benzyl-5,6,7,8-tetrahydronaphthalen-2-yl)azetidin-3-yl)-2,2-difluorobenzo[d][1,3]dioxole-5-sulfonamide]
Ki [1]: ≤ 10000 nM
human mCl [2]: ≦500 L/h/Kg

Cn1cnc(S(=O)(=O)N[C@H]2C[C@H](c3ccc4c(c3)[C@@H](Cc3ccccc3)[C@@H](N3CCC3)CC4)C2)c1 [Example 12, N-((1R,3r)-3-((7S,8R)-7-(azetidin-1-yl)-8-benzyl-5,6,7,8-tetrahydronaphthalen-2-yl)cyclobutyl)-1-methyl-1H-imidazole-4-sulfonamide]
Ki [1]: ≤ 10 nM
human mCl [2]: ≦5 L/h/Kg

CCCS(=O)(=O)NC1CN(c2ccc3c(c2)[C@@H](Cc2ccccc2)[C@@H](N2CC4CC4C2)CC3)C1 (stereo partly drawn) [Example 17, N-(1-((7S,8R)-8-benzyl-7-(3-azabicyclo[3.1.0]hexan-3-yl)-5,6,7,8-tetrahydronaphthalen-2-yl)azetidin-3-yl)propane-1-sulfonamide]
Ki [1]: ≤ 10 nM
human mCl [2]: ≦5 L/h/Kg

Cn1cnc(S(=O)(=O)N[C@H]2CCN(c3ccc4c(c3)[C@@H](Cc3ccccc3)[C@@H](N3CCC3)CC4)C2)c1 [Example 10, N-((S)-1-((7S,8R)-7-(azetidin-1-yl)-8-benzyl-5,6,7,8-tetrahydronaphthalen-2-yl)pyrrolidin-3-yl)-1-methyl-1H-imidazole-4-sulfonamide]
Ki [1]: ≤ 1000 nM
human mCl [2]: ≦5 L/h/Kg

Cn1cnc(S(=O)(=O)N[C@H]2C[C@@H](c3ccc4c(c3)[C@@H](Cc3ccccc3)[C@@H](N3CCC3)CC4)C2)c1 [Example 13, N-((1 S,3s)-3-((7S,8R)-7-(azetidin-1-yl)-8-benzyl-5,6,7,8-tetrahydronaphthalen-2-yl)cyclobutyl)-1-methyl-1H-imidazole-4-sulfonamide]
Ki [1]: ≤ 100 nM
human mCl [2]: ≦5 L/h/Kg

CCS(=O)(=O)NC1CN(c2ccc3c(c2)[C@@H](Cc2ccccc2)[C@@H](N2CCC2)CC3)C1 [Example 4, N-(1-((7S,8R)-7-(azetidin-1-yl)-8-benzyl-5,6,7,8-tetrahydronaphthalen-2-yl)azetidin-3-yl)ethanesulfonamide]
Ki [1]: ≤ 100 nM
human mCl [2]: ≦5 L/h/Kg

CCCS(=O)(=O)NC1CN(c2ccc3c(c2)[C@@H](Cc2ccccc2)[C@@H](N2CCC2)CC3)C1 [Example 5, N-(1-((7S,8R)-7-(azetidin-1-yl)-8-benzyl-5,6,7,8-tetrahydronaphthalen-2-yl)azetidin-3-yl)propane-1-sulfonamide]
Ki [1]: ≤ 10 nM
human mCl [2]: ≦5 L/h/Kg

Cn1cnc(S(=O)(=O)N[C@@H]2CCN(c3ccc4c(c3)[C@@H](Cc3ccccc3)[C@@H](N3CCC3)CC4)C2)c1 [Example 9, N-((R)-1-((7S,8R)-7-(azetidin-1-yl)-8-benzyl-5,6,7,8-tetrahydronaphthalen-2-yl)pyrrolidin-3-yl)-1-methyl-1H-imidazole-4-sulfonamide]
Ki [1]: ≤ 100 nM
human mCl [2]: ≦5 L/h/Kg

Cn1cnc(S(=O)(=O)NC2CCN(c3ccc4c(c3)[C@@H](Cc3ccccc3)[C@@H](N3CCC3)CC4)CC2)c1 [Example 11, N-(1-((7S,8R)-7-(azetidin-1-yl)-8-benzyl-5,6,7,8-tetrahydronaphthalen-2-yl)piperidin-4-yl)-1-methyl-1H-imidazole-4-sulfonamide]
Ki [1]: ≤ 100 nM
human mCl [2]: ≦5 L/h/Kg

CCS(=O)(=O)NC1(C)CN(c2ccc3c(c2)[C@@H](Cc2ccccc2)[C@@H](N2CCC2)CC3)C1 [Example 8, N-(1-((7S,8R)-7-(azetidin-1-yl)-8-benzyl-5,6,7,8-tetrahydronaphthalen-2-yl)-3-methylazetidin-3-yl)ethanesulfonamide]
Ki [1]: ≤ 10000 nM
human mCl [2]: ≦5 L/h/Kg

Cn1cnc(S(=O)(=O)NC2CN(c3ccc4c(c3)[C@@H](Cc3ccccc3)[C@@H](N3CC5CC5C3)CC4)C2)c1 (stereo partly drawn) [Example 15, N-(1-((7S,8R)-8-benzyl-7-(3-azabicyclo[3.1.0]hexan-3-yl)-5,6,7,8-tetrahydronaphthalen-2-yl)azetidin-3-yl)-1-methyl-1H-imidazole-4-sulfonamide]
Ki [1]: ≤ 100 nM
human mCl [2]: ≦5 L/h/Kg
